# Like-named read-outs stand apart in the source and are kept apart here.
# Key:
# estrogen receptor [1] = system: estrogen receptor; parameters: method as in ToxCast database; details: ref ToxCast database, cited from earlier work
# estrogen receptor [2] = system: estrogen receptor; parameters: method as in ToxCast database; details: ref ToxCast database, cited from earlier work; remark: listed apart in the source
# TSHR = system: TSHR; parameters: method as in ToxCast database; details: ref ToxCast database; cited from earlier work
# rats = details: highest dose tested; KS2; cited from earlier work
# thyroid pathway [3] = system: thyroid pathway; parameters: method as in ToxCast database; details: ref ToxCast database; cited from earlier work
# estrogen receptor [4] = system: estrogen receptor; parameters: method as in ToxCast database; details: ref ToxCast database, cited from earlier work; remark: listed apart in the source
# [5] = In vitro skin penetration and metabolism, fresh viable pig skin on static Franz cells
# Description: Fresh viable pig skin (without hot steam treatment, by-product from meat industry) was obtained from a local, commercial butcher (Hammoor, Germany). The back skin was from female pigs (bred from “Dänische Landrasse” (female) and Pietrain (male) pigs, ~130 days old, 100 kg body weight). Pig skin samples were gently dry-shaved and washed with water before use. For the experiment, 2 replicate discs from each of 3 donors were used.
# Skin of full-thickness was mounted on static Franz cells with a 4.9 cm² application area. The receptor compartment of the diffusion cell was filled with approx. 5 ml RF (1% BSA, 0.9% NaCl, 0.05% gentamycin sulfate in water), above a magnetic stirrer set to low rotation. […] The experiment was conducted using non-occluded conditions.
# The dermal absorption was calculated as the total amount present within epidermis (without the amount in the total SC strips), dermis and RF.
# estrogen receptor [6] = system: estrogen receptor; parameters: method as in ToxCast database; details: ref ToxCast database, cited from earlier work; for AC50: read-out: Estrogen pathway Reporter protein Agonist: AC50
# estrogen receptor [7] = system: estrogen receptor; parameters: method as in ToxCast database; details: ref ToxCast database; cited from earlier work
# [8] = ref PubChem or the ECHA database; cited from earlier work
# [9] = system: Thyroid (TR and TPO only); parameters: method as in ToxCast; details: ref ToxCast, cited from earlier work; for Thyroid (TR and TPO only): Experimental Data (call): Tier 0
# Aromatase = system: Aromatase; parameters: method as in ToxCast database; details: ref ToxCast database; cited from earlier work
# estrogen receptor [10] = system: estrogen receptor; parameters: method as in ToxCast database; details: ref ToxCast database; cited from earlier work; remark: listed apart in the source
# thyroid pathway [11] = system: thyroid pathway; parameters: method as in ToxCast database; details: ref ToxCast database; cited from earlier work; remark: listed apart in the source
# thyroid pathway [12] = system: thyroid pathway; parameters: method as in ToxCast database; details: ref ToxCast database; cited from earlier work; remark: listed apart in the source
# [13] = KS2; cited from earlier work
# androgen receptor (AR) = system: androgen receptor (AR); parameters: method as in ToxCast; details: ref ToxCast, cited from earlier work
# androgen receptor [14] = system: androgen receptor; parameters: method as in ToxCast database; details: ref ToxCast database; cited from earlier work
# estrogen receptor (ER) = details: cited from earlier work; for Estrogen: Experimental Data (call): Tier 0; for Estrogen: Experimental Data (call) / Estrogen: assays active / assays: ref ToxCast
# androgen receptor [15] = system: androgen receptor; parameters: method as in ToxCast database; details: ref ToxCast database; cited from earlier work; remark: listed apart in the source
# mice = details: KS2; cited from earlier work
# androgen receptor [16] = system: androgen receptor; parameters: method as in ToxCast database; details: ref ToxCast database; cited from earlier work; remark: listed apart in the source
# in vitro = in vitro ADME
# Procedure: […]. Samples were precipitated with an equal volume of acetonitrile containing internal standards (1 μM diazepam, 1 μM griseofulvin, 10 μM diclofenac) and then centrifuged (4800 x g, room temperature, 5 min) before analysis by UHPLC-MS/HRMS.
# The amount of compound in the samples was expressed as percentage of remaining compound compared to time point zero (=100%). These percentages were plotted against the corresponding time points. In vitro intrinsic clearance (CLint) and half-life (t1/2) estimates were determined using the rate of precursor disappearance and following formula, based on the well-stirred liver model (Obach 1999):
# t1/2 = half-life [min]; k = slope from the linear regression of log [test compound] versus time plot [1/min]
# Where CLint = in vitro intrinsic clearance [μl/min/10^6 cells]; t1/2 = half-life [min]; k = slope of the linear regression of log [test compound] versus time plot [1/min]; V = ratio of incubation volume and cell number and fu = unbound fraction in the blood. […]
# androgen receptor [17] = system: androgen receptor; parameters: method as in ToxCast database; details: ref ToxCast database; cited from earlier work; remark: listed apart in the source
# [18] = at 35°C; ref PubChem or the ECHA database; cited from earlier work
# H295R cell line [19] = system: H295R cell line; parameters: method as in ToxCast database; details: ref ToxCast database, cited from earlier work
# [20] = Fraction unbound in the plasma (Fup); details: human
# in vivo = details: human
# [21] = parameters: method as in SCCS, 2023a; details: frozen human skin, 14C-radio-labelled BSal in a formulation at 0.5%; ref SCCS, 2023a; cited from earlier work
# [22] = parameters: method as in PubChem or the ECHA database; details: at 25°C; ref PubChem or the ECHA database; cited from earlier work
# H295R cell line [23] = system: H295R cell line; parameters: method as in ToxCast database; details: ref ToxCast database, cited from earlier work; remark: listed apart in the source
# [24] = 24.14 mg/kg/day product, 0.5% BSal, 10.5% absorption
# [25] = ref PubChem or the ECHA database; cited from earlier work; remark: listed apart in the source
# THRa = system: THRa; parameters: method as in ToxCast database; details: ref ToxCast database; cited from earlier work
# H295R cell line [26] = system: H295R cell line; parameters: method as in ToxCast database; details: ref ToxCast database, cited from earlier work; remark: listed apart in the source
# [27] = 24 h after application of 0.5% BSal in formulation, mean ± SD, n = 6
structure (smiles),measurement,setting,value
"O=C(O)c1ccccc1 [BA, benzoic acid]",Estrogen pathway mRNA induction: Call,estrogen receptor [1],Negative
same,Estrogen pathway Cell Proliferation: Call,estrogen receptor [2],Negative
same,Thyroid pathway Regulation of transcription factor activity (TSHR): Call,TSHR,Negative
same,Reproductive toxicity NOAEL,rats,NOAEL 900 mg/kg bw (highest dose tested)
same,Thyroid pathway Reporter protein Agonist: Call,thyroid pathway [3],Negative
same,Estrogen pathway Dimerisation: Call,estrogen receptor [4],Negative
same,Dermal absorption of individual analytes,"[5]; 24 h, epidermis + dermis + receptor fluid",1.2 ± 0.7 percentage of the applied dose
same,Total recovery,"[5]; 24 h after application of 0.5% BSal in formulation, SA corrected by the amount of SA present in the formulation",19.8 ± 17.2 percentage of the applied dose
same,Dermis,[5]; [27],1.2 ± 0.7 percentage of the applied dose
same,Epidermis,[5]; [27],< LOQ*
same,Receptor fluid,[5]; [27],< LOQ*
same,Stratum corneum,[5]; [27],16.8 ± 16.3 percentage of the applied dose
same,Surface,"[5]; 24 h after application of 0.5% BSal in formulation, mean ± SD, n = 6 skin discs (three donors)",1.7 ± 1.2 percentage of the applied dose
same,Estrogen pathway Reporter protein Agonist: Call,estrogen receptor [6],Positive
same,AC50,estrogen receptor [6],7.54 µM
same,Estrogen pathway Reporter protein Antagonist: Call,estrogen receptor [7],Negative
same,Vapor pressure,[8],0.1 Pa
same,Thyroid (TR and TPO only): Experimental Data (call),[9],Negative
same,Thyroid (TR and TPO only): assays active / assays,[9],0/12 active
same,Steroidogenesis Aromatase: Call,Aromatase,Negative
same,Estrogen pathway receptor binding: Call,estrogen receptor [10],Negative
same,Thyroid pathway Reporter protein Antagonist: Call,thyroid pathway [11],Negative
same,Thyroid pathway mRNA induction: Call,thyroid pathway [12],Negative
same,Developmental Toxicity NOAEL,[13],NOAEL 1306 mg/kg bw
"OCc1ccccc1 [BAlc, benzyl alcohol]",Estrogen pathway mRNA induction: Call,estrogen receptor [1],Negative
same,Androgen: Experimental Data (call),androgen receptor (AR); Tier 0,Negative
same,Androgen: assays active / assays,androgen receptor (AR),0/14 active
same,Androgen pathway mRNA induction: Call,androgen receptor [14],Negative
same,Thyroid pathway Regulation of transcription factor activity (TSHR): Call,TSHR,Negative
same,Thyroid pathway Reporter protein Agonist: Call,thyroid pathway [3],Negative
same,Estrogen: Experimental Data (call),estrogen receptor (ER),Negative
same,Estrogen: assays active / assays,estrogen receptor (ER),0/18 active
same,Estrogen pathway Dimerisation: Call,estrogen receptor [4],Negative
same,Stratum corneum,[5],< LOQ*
same,Surface,[5],< LOQ*
same,Estrogen pathway Reporter protein Agonist: Call,estrogen receptor [6],Negative
same,Estrogen pathway Reporter protein Antagonist: Call,estrogen receptor [7],Negative
same,Vapor pressure,[8],7 Pa
same,Androgen pathway Dimerisation: Call,androgen receptor [15],Negative
same,Developmental Toxicity NOAEL,mice,NOAEL: 200 mg/kg
same,Thyroid (TR and TPO only): Experimental Data (call),[9],Negative
same,Thyroid (TR and TPO only): assays active / assays,[9],0/12 active
same,Steroidogenesis Aromatase: Call,Aromatase,Negative
same,Androgen pathway Reporter protein Agonist: Call,androgen receptor [16],Negative
same,Thyroid pathway Reporter protein Antagonist: Call,thyroid pathway [11],Negative
same,Thyroid pathway mRNA induction: Call,thyroid pathway [12],Negative
same,Time within which rapidly metabolized in PHH,"in vitro; both, human, hepatocytes, 5 µM",≤ 30 min
same,Androgen pathway Reporter protein Antagonist: Call,androgen receptor [17],Negative
"O=C(OCc1ccccc1)c1ccccc1O [BSal, benzyl salicylate]",Estrogen pathway mRNA induction: Call,estrogen receptor [1],Positive
same,AC50,estrogen receptor [1]; read-out: Estrogen pathway mRNA induction: AC50,37 µM
same,Estrogen pathway Cell Proliferation: Call,estrogen receptor [2],Positive
same,AC50,estrogen receptor [2]; read-out: Estrogen pathway Cell Proliferation: AC50,85.2 µM
same,Partition coefficient (Log Pow),[18],4
same,Steroidogenesis Corticosterone in H295R cell line: call,H295R cell line [19],Positive
same,AC50,H295R cell line [19]; read-out: Steroidogenesis Corticosterone in H295R cell line: AC50,36.8 µM
same,Thyroid pathway Regulation of transcription factor activity (TSHR): Call,TSHR,Negative
same,fraction unbound,[20],0.0066
same,Thyroid pathway Reporter protein Agonist: Call,thyroid pathway [3],Negative
same,Estrogen: Experimental Data (call),estrogen receptor (ER),Positive
same,AC50,"estrogen receptor (ER); binding assay for ERα, assay name OT_ER_ERaERa_0480, ref ToxCast database, read-out: Lowest reported AC50",36.5 µM
same,Estrogen: assays active / assays,estrogen receptor (ER),9 out of 18
same,Estrogen: assays active / assays,estrogen receptor (ER); listed as Benzyl salicylate,9/18 assays active
same,Estrogen pathway Dimerisation: Call,estrogen receptor [4],Positive
same,AC50,estrogen receptor [4]; read-out: Estrogen pathway Dimerisation: AC50,36.5 µM
same,NOAEL,in vivo,123 mg/kg/day
same,Receptor fluid,[5],< LOQ*
same,Estrogen pathway Reporter protein Agonist: Call,estrogen receptor [6],Positive
same,AC50,estrogen receptor [6],39.2 µM
same,Skin absorption,[21],9.01 % of the applied dose
same,Estrogen pathway Reporter protein Antagonist: Call,estrogen receptor [7],Negative
same,pKa,[22],9.82
same,Steroidogenesis 17alpha-hydroxyprogesterone in H295R cell line: call,H295R cell line [23],Positive
same,AC50,H295R cell line [23]; read-out: Steroidogenesis 17alpha-hydroxyprogesterone in H295R cell line: AC50,54.7 µM
same,Vapor pressure,[8],0.01 Pa
same,Thyroid (TR and TPO only): Experimental Data (call),[9],Negative
same,Thyroid (TR and TPO only): assays active / assays,[9],0/11 active
same,Steroidogenesis Aromatase: Call,Aromatase,Negative
same,SED total,[24],24.14 × 0.5/100 × 10.5/100 = 0.01267 mg/kg/d
same,Water solubility,[25],8800 µg/mL
same,Thyroid pathway receptor binding (THRa): Call,THRa,Negative
same,Steroidogenesis Progesterone in H295R cell line: call,H295R cell line [26],Positive
same,AC50,H295R cell line [26]; read-out: Steroidogenesis Progesterone in H295R cell line: AC50,43.7 µM
same,Thyroid pathway Reporter protein Antagonist: Call,thyroid pathway [11],Negative
same,Thyroid pathway mRNA induction: Call,thyroid pathway [12],Negative
same,Initial concentration detected,"in vitro; after 90, 120, and 240 min",0.1%–0.2%
same,Initial concentration remaining,"in vitro; after 30 min, 20 µM BSal",10%
same,half-life at 20 µM,"in vitro; both sexes, human, hepatocytes, 20 µM, 0.8 million cells/ml, read-out: Half-life in PHH",9.2 min
same,hepatocyte CLint at 20 µM,"in vitro; both sexes, human, hepatocytes, PHH, read-out: In vitro intrinsic clearance (CLint, in vitro)",94.2 µL/min/1e6 cells

# — publication PMC10955127 (Frontiers in Pharmacology, 2024)
